Data as given in patent publication US6737383B1, “Herbicidal oxadiazolidines” (priority 1999, dated 2004).

What was measured:
wheat = test: Test B pre/postemergence wheat; format: in vivo, Triticum aestivum
Procedure, shortened: (§1)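 Herbicidal effect was estimated by eye on a ten-point control scale after plants spent twelve to sixteen days in a greenhouse following soil or foliar treatment. Foliar sprays targeted plants at one to four leaves; all doses were formulated in a non-phytotoxic solvent with surfactant.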

bedstraw = test: Test B pre/postemergence bedstraw; format: in vivo, Galium aparine
Procedure, shortened: as §1

wild oat = test: Test B pre/postemergence wild oat; format: in vivo, Avena fatua
Procedure, shortened: as §1

blackgrass = test: Test B pre/postemergence blackgrass; format: in vivo, Alopecurus myosuroides
Procedure, shortened: as §1

corn = test: Test B pre/postemergence corn; format: in vivo, Zea mays
Procedure, shortened: as §1

crabgrass = test: Test B pre/postemergence crabgrass; format: in vivo, Digitaria sanguinalis
Procedure, shortened: as §1

surinam grass = test: Test B pre/postemergence surinam grass; format: in vivo, Brachiaria decumbens
Procedure, shortened: as §1

morningglory = test: Test B pre/postemergence morningglory; format: in vivo, Ipomoea hederacea
Procedure, shortened: as §1

duck salad = test: Test B flood test duck salad; format: in vivo, Heteranthera limosa
Procedure, shortened: (§2)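 Each value is a visual injury score relative to controls, with 10 meaning complete control and 0 no effect. Evaluation took place twelve to sixteen days after the 2-leaf-stage plants were treated and kept in the greenhouse.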

pigweed = test: Test B pre/postemergence pigweed; format: in vivo, Amaranthus retroflexus
Procedure, shortened: as §1

purple nutsedge = test: Test B pre/postemergence purple nutsedge; format: in vivo, Cyperus rotundus
Procedure, shortened: as §1

velvetleaf = test: Test B pre/postemergence velvetleaf; format: in vivo, Abutilon theophrasti
Procedure, shortened: as §1

sugar beet = test: Test B pre/postemergence sugar beet; format: in vivo, Beta vulgaris
Procedure, shortened: as §1

smallflower flatsedge = test: Test B flood test smallflower flatsedge; format: in vivo, Cyperus difformis
Procedure, shortened: as §2

cocklebur = test: Test B pre/postemergence cocklebur; format: in vivo, Xanthium strumarium
Procedure, shortened: as §1

rape = test: Test B pre/postemergence rape; format: in vivo, Brassica napus
Procedure, shortened: as §1

[1] = Postemergence, Rate 250 g/ha, scale 0 to 10
[2] = Postemergence, Rate 500 g/ha, scale of 0 to 10 where 0 is no effect and 10 is complete control
[3] = Postemergence, Rate 1000 g/ha, scale 0 to 10 (0 no effect, 10 complete control)
[4] = Preemergence, Rate 125 g/ha, scale of 0 to 10 where 0 is no effect and 10 is complete control
[5] = Preemergence, Rate 250 g/ha, scale 0 to 10, 0 is no effect, 10 is complete control
[6] = Preemergence, Rate 500 g/ha, scale 0 to 10, 0 is no effect, 10 is complete control
[7] = Rate 125 g/ha, Postemergence, scale 0 to 10, 0 is no effect, 10 is complete control
[8] = Rate 1000 g/ha, Preemergence, scale 0 to 10 (0 no effect, 10 complete control)
[9] = Pre-emergence, Rate 1000 g/ha, scale 0 to 10 (0 no effect, 10 complete control)
[10] = Rate 125 g/ha, under heading Pre-emergence, flood test species, visual evaluation after twelve to sixteen days
[11] = Rate 250 g/ha, Pre-emergence (flood test species), scale 0 to 10, 0 is no effect, 10 is complete control
[12] = Rate 500 g/ha, Pre-emergence, flood test species, scale 0 to 10 (0 no effect, 10 complete control)

CCOP(=O)(OCC)C(C)n1c(=O)on(C(=O)N(c2ccccc2)C(C)C)c1=O (centres unmarked) [Compound 448]
2: Blackgrass plant response rating (blackgrass; [3]) | Blackgrass plant response rating (blackgrass; [6]) | Plant response rating, Corn (corn; [8]) | B. signalgrass plant response rating (surinam grass; [6]) | Morningglory plant response rating (morningglory; [1]) | Velvetleaf plant response rating (velvetleaf; [3])
5: Plant response rating, Wild oats (wild oat; [8]) | Morningglory plant response rating (morningglory; [2])
4: Wild oats plant response rating (wild oat; [3]) | Plant response rating, Blackgrass (blackgrass; [8]) | Plant response rating, Crabgrass (crabgrass; [4]) | Crabgrass plant response rating (crabgrass; [5]) | Plant response rating, B. signalgrass (surinam grass; [8])
0: Wheat plant response rating (wheat; [1]) | Wheat plant response rating (wheat; [2]) | Wheat plant response rating (wheat; [3]) | Plant response rating, Wheat (wheat; [4]) | Wheat plant response rating (wheat; [5]) | Wheat plant response rating (wheat; [6]) | Wheat plant response rating (wheat; [7]) | Plant response rating, Wheat (wheat; [8]) | Bedstraw plant response rating (bedstraw; [1]) | Plant response rating, Bedstraw (bedstraw; [4]) | Bedstraw plant response rating (bedstraw; [5]) | Bedstraw plant response rating (bedstraw; [6]) | Bedstraw plant response rating (bedstraw; [7]) | Plant response rating, Bedstraw (bedstraw; [8]) | Wild oats plant response rating (wild oat; [1]) | Wild oats plant response rating (wild oat; [2]) | Plant response rating, Wild oats (wild oat; [4]) | Wild oats plant response rating (wild oat; [5]) | Wild oats plant response rating (wild oat; [6]) | Wild oats plant response rating (wild oat; [7]) | Blackgrass plant response rating (blackgrass; [1]) | Blackgrass plant response rating (blackgrass; [2]) | Plant response rating, Blackgrass (blackgrass; [4]) | Blackgrass plant response rating (blackgrass; [5]) | Blackgrass plant response rating (blackgrass; [7]) | Corn plant response rating (corn; [1]) | Corn plant response rating (corn; [2]) | Corn plant response rating (corn; [3]) | Plant response rating, Corn (corn; [4]) | Corn plant response rating (corn; [5]) | Corn plant response rating (corn; [6]) | Corn plant response rating (corn; [7]) | Crabgrass plant response rating (crabgrass; [1]) | Crabgrass plant response rating (crabgrass; [2]) | Crabgrass plant response rating (crabgrass; [3]) | Crabgrass plant response rating (crabgrass; [7]) | B. signalgrass plant response rating (surinam grass; Postemergence, Rate 250 g/ha, scale 0 to 10, 0 no effect, 10 complete control) | B. signalgrass plant response rating (surinam grass; [2]) | B. signalgrass plant response rating (surinam grass; [3]) | Plant response rating, B. signalgrass (surinam grass; [4]) | B. signalgrass plant response rating (surinam grass; [5]) | B. signalgrass plant response rating (surinam grass; [7]) | Plant response rating, Morningglory (morningglory; [4]) | Morningglory plant response rating (morningglory; [5]) | Morningglory plant response rating (morningglory; [6]) | Morningglory plant response rating (morningglory; [7]) | Plant response rating, Morningglory (morningglory; [8]) | Ducksalad plant response rating (duck salad; [9]) | Ducksalad plant response rating (0 to 10 scale, 0 is no effect, 10 is complete control) (duck salad; [10]) | Ducksalad plant response rating (duck salad; [11]) | Ducksalad plant response rating (duck salad; [12]) | Redroot pigweed plant response rating (pigweed; [1]) | Redroot pigweed plant response rating (pigweed; [2]) | Redroot pigweed plant response rating (pigweed; [3]) | Plant response rating, Redroot pigweed (pigweed; [4]) | Redroot pigweed plant response rating (pigweed; [5]) | Redroot pigweed plant response rating (pigweed; [6]) | Redroot pigweed plant response rating (pigweed; [7]) | Plant response rating, Redroot pigweed (pigweed; [8]) | Nutsedge plant response rating (purple nutsedge; [1]) | Nutsedge plant response rating (purple nutsedge; [2]) | Nutsedge plant response rating (purple nutsedge; [3]) | Plant response rating, Nutsedge (purple nutsedge; [4]) | Nutsedge plant response rating (purple nutsedge; [5]) | Nutsedge plant response rating (purple nutsedge; [6]) | Nutsedge plant response rating (purple nutsedge; [7]) | Plant response rating, Nutsedge (purple nutsedge; [8]) | Velvetleaf plant response rating (velvetleaf; [1]) | Velvetleaf plant response rating (velvetleaf; [2]) | Plant response rating, Velvetleaf (velvetleaf; [4]) | Velvetleaf plant response rating (velvetleaf; [5]) | Velvetleaf plant response rating (velvetleaf; [6]) | Velvetleaf plant response rating (velvetleaf; [7]) | Plant response rating, Velvetleaf (velvetleaf; [8]) | Sugarbeets plant response rating (sugar beet; [1]) | Sugarbeets plant response rating (sugar beet; [2]) | Sugarbeets plant response rating (sugar beet; [3]) | Plant response rating, Sugarbeets (sugar beet; [4]) | Sugarbeets plant response rating (sugar beet; [5]) | Sugarbeets plant response rating (sugar beet; [6]) | Sugarbeets plant response rating (sugar beet; [7]) | Plant response rating, Sugarbeets (sugar beet; [8]) | S. Flatsedge plant response rating (smallflower flatsedge; [9]) | S. Flatsedge plant response rating (0 to 10 scale, 0 is no effect, 10 is complete control) (smallflower flatsedge; [10]) | S. Flatsedge plant response rating (smallflower flatsedge; [11]) | S. Flatsedge plant response rating (smallflower flatsedge; [12]) | Cocklebur plant response rating (cocklebur; [1]) | Cocklebur plant response rating (cocklebur; [2]) | Cocklebur plant response rating (cocklebur; [3]) | Plant response rating, Cocklebur (cocklebur; [4]) | Cocklebur plant response rating (cocklebur; [5]) | Cocklebur plant response rating (cocklebur; [7]) | Rape plant response rating (rape; [1]) | Rape plant response rating (rape; [2]) | Rape plant response rating (rape; [3]) | Plant response rating, Rape (rape; [4]) | Rape plant response rating (rape; [5]) | Rape plant response rating (rape; [6]) | Rape plant response rating (rape; [7]) | Plant response rating, Rape (rape; [8])
8: Morningglory plant response rating (morningglory; [3])
9: Crabgrass plant response rating (crabgrass; [6]) | Plant response rating, Crabgrass (crabgrass; [8])
